Key:
[1] = system: U87MG (human glioblastoma astrocytoma); assay: Cell adhesion assay on matrigel coated wells; type: cell-based; details: treated 18-20h
Method: Cell surface, non-integrin molecules such as heparan sulfate proteoglycans (HSPGs) may be involved in the regulation of early adhesive stages of cell-ECM interactions. A cell adhesion assay has been employed to determine if the newly designed heparanase inhibitors were able to interfere with adhesion properties of cancer cells.
For the assay set-up, U87MG (human glioblastoma astrocytoma) cells were treated for 18-20h with test compounds, in complete medium supplemented with 10% FCS. Then, cells were collected, washed in complete medium, and added to matrigel coated wells in triplicate, at previously identified optimal seeding density, and incubated at 37 °C in complete medium for times ranging from 15 minutes to 4h (Goldshmidt et al, FASEB, 2003). After incubation, the wells were washed three times with serum-free medium and the remaining firmly attached cells were stained with crystal violet 0.1 reagent. Optical density was measure at 500 nm by Victor 3 (Perkin-Elmer) plate analyzer. Each experiment was repeated three times.

heparanase = target: T1, heparanase (Homo sapiens, UniProt Q9Y251); assay: Fondaparinux heparanase assay (AGA*IA assay), colorimetric WST-1; type: biochemical; details: 2.5 nM heparanase, 100 µM fondaparinux, pH 5.0, 3 h at 37°C
T1 sequence (Q9Y251 158-543 limits assumed): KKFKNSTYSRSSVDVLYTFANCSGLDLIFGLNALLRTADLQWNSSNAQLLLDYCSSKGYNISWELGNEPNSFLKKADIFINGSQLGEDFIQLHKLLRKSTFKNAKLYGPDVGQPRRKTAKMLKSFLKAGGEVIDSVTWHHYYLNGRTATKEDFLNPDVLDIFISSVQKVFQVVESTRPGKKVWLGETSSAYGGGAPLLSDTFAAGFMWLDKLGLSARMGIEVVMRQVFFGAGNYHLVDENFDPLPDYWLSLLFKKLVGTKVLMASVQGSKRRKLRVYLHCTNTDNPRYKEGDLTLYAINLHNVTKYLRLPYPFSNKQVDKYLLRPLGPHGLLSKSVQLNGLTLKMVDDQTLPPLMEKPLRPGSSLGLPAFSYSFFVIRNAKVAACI
T1 sequence (Q9Y251 36-109 limits assumed): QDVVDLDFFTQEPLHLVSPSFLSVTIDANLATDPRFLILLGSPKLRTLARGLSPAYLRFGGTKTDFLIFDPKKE
Method: In order to determinate their activity as potent heparanase inhibitor, compounds were tested in a simple, accurate and robust microplate assay based on the cleavage of the synthetic heparin fragment, the pentasaccharide Fondaparinux (AGA*IA). This assay was originally developed by Hammond and coworkers [Hammond E, Li CP, Ferro V. Development of a colorimetric assay for heparanase activity suitable for kinetic analysis and inhibitor screening. Anal. Biochem. 2010, 396(1), 112-116], where Fondaparinux corresponds to the methyl glycoside of the antithrombin III (ATIII)-activating pentasaccharide sequence of heparin. Fondaparinux is cleaved by heparanase to generate a reducing disaccharide, which can be quantitatively measured via a colorimetric or a fluorescence assay, the last by the fluorescent sensor polymer-H [Schiemann S, Lühn S, Alban S. Development of both colorimetric and fluorescence heparinase activity assays using fondaparinux as substrate. […]
Assay was carried out with 100 µl/well of assay solution containing 40 mM sodium acetate buffer (pH 5.0), 100 µM fondaparinux, 2.5 nM heparanase and serial dilutions of test compounds (tested in triplicate). […] Then, the absorbance at 560 nm was measured through a microplate reader (Victor 3, Perkin Elmer).
Finally, the measurements were corrected by subtracting both the reagent background and the inner absorbance value of test compound. […]

[2] = system: luciferase-labelled CAG myeloma cells; details: NOD/SCID mice, 1000 µg/mouse intraperitoneal twice a day from day 9 to day 29; Figure 2
Method: Briefly, luciferase-labelled CAG myeloma cells (5x106; same cells) were injected subcutaneously into NOD/SCID mice (n=5). Mice were treated with compounds (1000 µg/mouse, injected intraperitoneal twice a day, starting on day 9 of cell inoculation).
Mice were injected with cells on day ONE and the first injection of compounds was given starting on day NINE, twice a day, including weekends. Tumor growth was examined by IVIS imaging prior to the first injection of compounds and once a week thereafter. The experiment was terminated on day TWENTYNINE (Figure 2).
IVIS imaging. Bioluminescent imaging of the luciferase-expressing tumors was performed with a highly sensitive, cooled charge coupled device (CCD) camera mounted in a light-tight specimen box (IVIS; Xenogen Corp., Waltham, MA). Briefly, mice were injected intraperitoneally with D-luciferin substrate at 150 mg/kg, anesthetized and placed onto a stage inside the light-tight camera box, with continuous exposure to isoflurane (EZAnesthesia, Palmer, PA). Light emitted from the bioluminescent cells was detected by the IVIS camera system with images quantified for tumor burden using a log-scale color range set at 5×10^4 to 1×10^7 and measurement of total photon counts per second (PPS) using Living Image software (Xenogen).

[3] = system: U87MG (human glioblastoma astrocytoma); assay: SRB Cell Cytotoxicity Assay; type: cell-based; details: 72h
Excerpt: (§1) SRB Cell Cytotoxicity Assay is based on the quantitative staining of cellular proteins by sulforhodamine B (SRB). This assay can be used for high-throughput drug screening (Vichai & Kirkitara, Nature Protocol. 2006, 1, 112). Sulforhodamine B is an anionic aminoxanthene dye that forms an electrostatic complex with the basic amino acid residues of proteins under moderately acid conditions, which provides a sensitive linear response.
(§2) To assess a putative antiproliferative activity of the selected compounds, HT1080 (human fibrosarcoma), U87MG (human glioblastoma astrocytoma) and U2OS (human osteosarcoma) cell lines were treated for 72h, in triplicate, with increasing concentrations of heparanase inhibitors. Inhibition of cell proliferation was then measured by the classical colorimetric SRB Cell Cytotoxicity assay. Absorbance was measured by spectrophotometer at a wavelength of 510 nm and cell proliferation was determined as percent with respect to control cells (cells treated with the vehicle alone). EC50 values were then determined by GraphPad Prism.
(§3) Results are summarized in the following Table 3, reporting the ability of anti-heparanase agents (test compounds) to reduce tumor growth (cytotoxic effect) on three tumor cell lines, evaluated at three concentrations. Results were expressed as a percentage of growth versus control.

[4] = system: U2OS (human osteosarcoma); assay: SRB Cell Cytotoxicity Assay; type: cell-based; details: 72h
Excerpt: as §1, §2, §3

[5] = system: HT1080 (human fibrosarcoma); assay: SRB Cell Cytotoxicity Assay; type: cell-based; details: 72h
Excerpt: as §1, §2, §3

Substance	Test compounds adhesion versus basal (100%) ([1]; 0.1 µM) [%]	Test compounds adhesion versus basal (100%) ([1]; 1 µM) [%]	Test compounds adhesion versus basal (100%) ([1]; 10 µM) [%]	IC50 (heparanase) [nM]	inhibition of CAG myeloma cell growth [2]	Percentage tumor growth versus control U87MG ([3]; 11.1 µM) [%]	Percentage tumor growth versus control U87MG ([3]; 33.3 µM) [%]	Percentage tumor growth versus control U87MG ([3]; 100 µM) [%]	Percentage tumor growth versus control U2OS ([4]; 11.1 µM) [%]	Percentage tumor growth versus control U2OS ([4]; 33.3 µM) [%]	Percentage tumor growth versus control U2OS ([4]; 100 µM) [%]	Percentage tumor growth versus control HT1080 ([5]; 11.1 µM)	Percentage tumor growth versus control HT1080 ([5]; 33.3 µM)	Percentage tumor growth versus control HT1080 ([5]; 100 µM) [%]
N-desulfated N-acetylated glycol split heparin -(GGGS)3-NH-(CH2)5-NH-Biotin with a substitution degree on the R1 and/or R1' positions of about 7% [SST0761NA1]	57.55	13.25	21.46	~3	reached statistical significance	84.47	75.00	73.23	85.3	79.5	69.3	99.98%	98.83%	75.02
N-desulfated N-acetylated glycol split heparin -Reducing end-NH-CH2-1,2,3-Triazole-4, N-Glycine-CONH-(CH2)5-NH-Biotin with a substitution degree on the R3 position of about 2 % [SST0764NA1]	83.21	19.82	12.79	~4		90.61	86.29	76.44	80.70	76.00	66.90	~ 100%	~ 100%	95.15

Source: EP3388439A1, “BIOTIN-CONJUGATED N-ACETYL GLYCOL SPLIT HEPARIN” (Leadiant Biosciences SA, priority 2017, dated 2018)
